Among the data in ChEMBL document CHEMBL1125188, “Synthesis and evaluation of stilbene and dihydrostilbene derivatives as potential anticancer agents that inhibit tubulin polymerization” (J Med Chem, 1991) are EC50 values, retold here.

What all share (assay type): functional
Details in all cases: Homo sapiens, read-out: ED50 (the source's name)

In one assay the test system is HT-29. The assay is described as follows: Cytotoxic concentration required to inhibit 50% cell growth in HT-29 colon adenocarcinoma cell lines.
The test system of the next assay is MLM. The assay is described as follows: Cytotoxic concentration required to inhibit 50% cell growth in MLM melanoma cell lines.
The test system of another assay is MCF7. The assay is described as follows: Cytotoxic concentration required to inhibit 50% cell growth in MCF-7 breast carcinoma cell lines.
Another assay deals with SK-MEL-5. Put plainly: Cytotoxic concentration required to inhibit 50% cell growth in SKMEL-5 melanoma cell lines.
The subject of another assay is A549. Put plainly: Cytotoxic concentration required to inhibit 50% cell growth in A-549 lung carcinoma cell lines.

With `COc1cc(/C=C\c2ccncc2)cc(OC)c1OC`, the EC50 is 12.9 µM in the assay on HT-29; over 25 µM in the assay with MLM; 17 µM with MCF7; 14.4 µM with SK-MEL-5; 14.2 µM with A549.
The matching figures for `COc1cc(/C=C/c2cccnc2)cc(OC)c1OC`: over 25 µM, over 25 µM, over 25 µM, over 25 µM and over 25 µM.
The matching figures for `COc1cc(CCc2ccc(NC(C)=O)cc2)cc(OC)c1OC`: over 25 µM, over 25 µM, over 25 µM, over 25 µM and over 25 µM.
For `COc1cc(/C=C/c2ccc(OC)c(OC)c2OC)cc(OC)c1OC`, in that order: 10.3 µM, 23.9 µM, 14.7 µM, 10.6 µM and 12.5 µM.
For the compound `COc1ccccc1/C=C\c1cc(OC)c(OC)c(OC)c1`, the EC50 turned out to be 0.87 µM in the assay with HT-29; 8.6 µM in the assay with MLM; 1.3 µM in the assay with MCF7; 1.2 µM in the assay on SK-MEL-5; 1.1 µM with A549.
The matching figures for `COc1cc(CCc2ccc(O)cc2)cc(OC)c1OC`: over 25 µM, over 25 µM, over 25 µM, over 25 µM and over 25 µM.
In the case of `COc1cc(OC)c(/C=C/c2ccccc2)c(OC)c1`, the EC50 in the assay on HT-29, in the assay with MLM, in the assay with MCF7, in the assay with SK-MEL-5 and in the assay on A549 was over 25 µM each time.
Regarding `COc1ccc(C(=O)Nc2cc(OC)c(OC)c(OC)c2)cc1`, the EC50 with HT-29, in the assay with MLM, in the assay on MCF7, in the assay on SK-MEL-5 and with A549 was over 25 µM throughout.
In the case of `COc1cc(CCc2ccncc2)cc(OC)c1OC`, the EC50 in the assay with HT-29, in the assay on MLM, in the assay on MCF7, with SK-MEL-5 and in the assay with A549 was over 25 µM throughout.
Take `COc1ccccc1CCc1cc(OC)c(OC)c(OC)c1`: the EC50 was over 25 µM in the assay on HT-29; over 25 µM in the assay with MLM; 11.8 µM in the assay on MCF7; 20 µM with SK-MEL-5; 13.5 µM with A549.
Regarding `COc1ccc(/C=C/c2ccccc2)c(OC)c1OC`, the EC50 in the assay on HT-29, in the assay with MLM, in the assay on MCF7, with SK-MEL-5 and in the assay on A549 was over 25 µM each time.
Consider `COc1cc(/C=C/c2ccc(O[Si](C)(C)C(C)(C)C)cc2)cc(OC)c1OC`, for which the EC50 with HT-29, in the assay with MLM, in the assay on MCF7, in the assay with SK-MEL-5 and in the assay on A549 was over 25 µM in each case.
Take `COc1cc(NC(=O)c2cc(OC)c(OC)c(OC)c2)cc(OC)c1OC`: the EC50 in the assay with HT-29, in the assay on MLM, in the assay with MCF7, with SK-MEL-5 and with A549 was over 25 µM throughout.
Turning to `COc1cc(/C=C/c2ccccn2)cc(OC)c1OC`, the EC50 in the assay with HT-29, in the assay on MLM, in the assay on MCF7, with SK-MEL-5 and with A549 was over 25 µM throughout.
Consider `COc1cc(/C=C/c2ccncc2)cc(OC)c1OC`, for which the EC50 in the assay on HT-29, in the assay on MLM, in the assay on MCF7, with SK-MEL-5 and with A549 was over 25 µM throughout.
Consider `COc1cc(CCc2cccnc2)cc(OC)c1OC`, for which the EC50 with HT-29 was over 25 µM; in the assay with MLM it was over 25 µM; in the assay with MCF7 it was over 25 µM; in the assay with SK-MEL-5 it was over 25 µM; in the assay with A549, 12.2 µM.
As for `COc1ccc(C(=O)Nc2cc(OC)c(OC)c(OC)c2)cc1OC`, the EC50 in the assay with HT-29, in the assay with MLM, in the assay on MCF7, with SK-MEL-5 and in the assay with A549 was over 25 µM in each case.
As for `COc1ccc(/C=C/c2cc(OC)c(OC)c(OC)c2)c(Cl)c1`, the EC50 in the assay on HT-29, with MLM, in the assay with MCF7, in the assay with SK-MEL-5 and in the assay with A549 was over 25 µM throughout.
Turning to `COc1cc(/C=C/c2ccc(Cl)cc2)cc(OC)c1OC`, the EC50 with HT-29, in the assay on MLM, in the assay with MCF7, in the assay on SK-MEL-5 and in the assay with A549 was over 25 µM in each case.
In the case of `COc1cc(CCc2ccc(OC)c(OC)c2OC)cc(OC)c1OC`, the EC50 with HT-29, with MLM, with MCF7, with SK-MEL-5 and in the assay with A549 was over 25 µM throughout.
As to `COc1cc(/C=C\c2ccc(O[Si](C)(C)C(C)(C)C)cc2)cc(OC)c1OC`, the EC50 with HT-29 is 10.6 µM; with MLM it was 17.2 µM; in the assay on MCF7 it was 7.29 µM; with SK-MEL-5 it was 7.59 µM; in the assay with A549 it was 11 µM.
For `COc1cc(CCc2ccccc2)cc(OC)c1OC`, in that order: over 25 µM, over 25 µM, over 25 µM, over 25 µM and over 25 µM.
For `COc1cc(OC)c(OC)cc1/C=C/c1ccccc1`, in that order: over 25 µM, over 25 µM, 8.5 µM, over 25 µM and over 25 µM.
The matching figures for `COc1cccc(/C=C/c2cc(OC)c(OC)c(OC)c2)c1`: 7.3 µM, over 25 µM, 12.2 µM, 0.5 µM and 9.8 µM.
In the case of `COc1ccc(/C=C\c2ccc(OC)c(OC)c2OC)cc1`, the EC50 with HT-29 is 1 µM; with MLM, 10.9 µM; with MCF7, 0.23 µM; with SK-MEL-5, 1.1 µM; in the assay with A549 it was 0.97 µM.
The matching figures for `COc1cc(/C=C\c2ccc([N+](=O)[O-])cc2)cc(OC)c1OC`: over 25 µM, over 25 µM, over 25 µM, over 25 µM and over 25 µM.
Regarding `COc1cc(CCc2ccc(N)cc2)cc(OC)c1OC`, the EC50 with HT-29 is 24.6 µM; in the assay on MLM, over 25 µM; in the assay on MCF7, 11.9 µM; in the assay on SK-MEL-5 it was 12.7 µM; with A549, 12.2 µM.
Turning to `COc1cc(/C=C/c2cc(OC)c(OC)c(OC)c2)cc(OC)c1OC`, the EC50 in the assay with HT-29, in the assay with MLM, with MCF7, in the assay with SK-MEL-5 and in the assay on A549 was over 25 µM throughout.
Consider `COc1cc(/C=C/c2ccc(OC(C)=O)cc2)cc(OC)c1OC`, for which the EC50 came to 5.4 µM in the assay with HT-29; 13 µM in the assay with MLM; 9.6 µM with MCF7; 4.6 µM in the assay on SK-MEL-5; 9.7 µM in the assay on A549.
For `COc1cc(/C=C\c2ccc(O)cc2)cc(OC)c1OC`, in that order: 1.75 µM, 12.6 µM, 5.7 µM, 2.27 µM and 12.7 µM.
For `COc1cccc(CCc2cc(OC)c(OC)c(OC)c2)c1`, in that order: 7.6 µM, over 25 µM, 12.4 µM, 9.2 µM and 11.7 µM.
The matching figures for `COc1cc(/C=C/c2ccc(N)cc2)cc(OC)c1OC`: over 25 µM, over 25 µM, over 25 µM, over 25 µM and over 25 µM.
Regarding `COc1ccc(CCc2ccccc2)c(OC)c1OC`, the EC50 in the assay on HT-29, with MLM, with MCF7, in the assay with SK-MEL-5 and in the assay on A549 was over 25 µM throughout.
With `COc1ccc(CCc2ccccc2)cc1OC`, the EC50 in the assay on HT-29, with MLM, in the assay on MCF7, in the assay with SK-MEL-5 and with A549 was over 25 µM in each case.
Take `COc1cc(/C=C/c2ccc(O)cc2)cc(OC)c1OC`: the EC50 in the assay with HT-29 was over 25 µM; with MLM, 24.2 µM; with MCF7, 18.6 µM; with SK-MEL-5, 11.6 µM; in the assay on A549 it was over 25 µM.
For the compound `COc1ccc(NC(=O)c2cc(OC)c(OC)c(OC)c2)cc1`, the EC50 is 22.7 µM in the assay with HT-29; over 25 µM with MLM; 12.2 µM in the assay with MCF7; over 25 µM with SK-MEL-5; 14.1 µM in the assay on A549.
As to `COc1ccccc1/C=C/c1cc(OC)c(OC)c(OC)c1`, the EC50 was 12.1 µM in the assay with HT-29; over 25 µM in the assay on MLM; 18 µM in the assay with MCF7; 13.5 µM in the assay on SK-MEL-5; 12.2 µM with A549.
The matching figures for `COc1cc(OC)c(OC)cc1/C=C/c1cc(OC)c(OC)c(OC)c1`: over 25 µM, over 25 µM, over 25 µM, over 25 µM and over 25 µM.
The matching figures for `COc1cc(CCc2cc(OC)c(OC)c(OC)c2)cc(OC)c1`: over 25 µM, over 25 µM, over 25 µM, over 25 µM and over 25 µM.
For `COc1ccc(NC(=O)c2cc(OC)cc(OC)c2)cc1`, in that order: 14.5 µM, over 25 µM, 5.47 µM, 11.9 µM and 9.02 µM.
Regarding `COc1ccc(/C=C\c2cc(OC)c(OC)c(OC)c2)cc1O` [COMBRETASTATIN A4], the figures for the EC50 in the assay on HT-29, in the assay on MLM and with MCF7 were 1.2e-05 µM, 1.4e-05 µM and 3.8e-06 µM, respectively.
